The results in this text go back to patent publication US10544444B2, “Compositions for in situ labeling of bacterial cell walls with fluorophores and methods of use thereof” (priority 2012, dated 2020).

The subject of test [1] is E. coli, B. subtilis, A. tumefaciens, L. lactis, M. conglomeratus, C. crescentus and S. aureus. The test is described as follows: Short pulse labeling of evolutionarily distinct bacteria. The class given is cell-based. As to conditions: pulsed for 2%-8% of generation time, immediately fixed.
Test [2] relates to Agrobacterium tumefaciens. As to the kind of experiment: Cell wall / PG labeling of live A. tumefaciens, fluorescence microscopy. It counts as cell-based. As to conditions: for incorporation into the cell wall: control experiments, fluorescent D-Ala vs fluorescent L-Ala.

`NC(CNC(=O)c1cc2ccc(O)cc2oc1=O)C(=O)O` (stereo not shown) [HADA]: the “visibility of sites of active cell wall synthesis” value in test [1] is “sites of active synthesis were clearly visible”. Besides, in test [2], the “incorporation into the cell wall” value is “incorporated into the cell wall”. Further, in test [2] (live A. tumefaciens, long pulse), the “PG labeling, long labeling pulses” value is given as “uniformly label PG”.

As for `N[C@@H](CNC(=O)c1cc2ccc(O)cc2oc1=O)C(=O)O` [HALA], the “incorporation into the cell wall” value in test [2] is listed as “only D-HCC was incorporated”.
